Source: patent publication US9249123B2, “Pyridinones/pyrazinones, method of making, and method of use thereof” (Genentech, Inc., priority 2010, dated 2016)

How the values were obtained:
[1] = target: full length human wildtype Btk (Homo sapiens (Human), UniProt Q06187); assay: Biochemical Btk Assay
Method: Formula I compounds were tested by a standard biochemical Btk Kinase Assay (Example 901). A generalized procedure for a standard biochemical Btk Kinase Assay that can be used to test Formula I compounds is as follows. […] A master mix plus Btk enzyme is prepared containing 1× Cell Signaling kinase buffer, 0.5 μM PTK Biotinylated peptide substrate 2, 0.01% BSA, and 100 ng/well (0.06 mU/well) Btk enzyme. Btk enzyme is prepared as follows: full length human wildtype Btk (accession number NM-000061) with a C-terminal V5 and 6×His tag was subcloned into pFastBac vector for making baculovirus carrying this epitope-tagged Btk. Generation of baculovirus is done based on Invitrogen's instructions detailed in its published protocol “Bac-to-Bac Baculovirus Expression Systems” (Cat. Nos. 10359-016 and 10608-016). […] The Btk protein is then purified to homogeneity using Ni-NTA column. The purity of the final protein preparation is greater than 95% based on the sensitive Sypro-Ruby staining. A solution of 200 μM ATP is prepared in water and adjusted to pH7.4 with 1N NaOH. A quantity of 1.25 μL of compounds in 5% DMSO is transferred to a 96-well ½ area Costar polystyrene plate. Compounds are tested singly and with an 11-point dose-responsive curve (starting concentration is 10 μM; 1:2 dilution). A quantity of 18.75 μL of master mix minus enzyme (as a negative control) and master mix plus enzyme is transferred to appropriate wells in 96-well ½ area costar polystyrene plate. 5 μL of 200 μM ATP is added to that mixture in the 96-well ½ area Costar polystyrene plate for final ATP concentration of 40 μM. The reaction is allowed to incubate for 1 hour at room temperature. The reaction is stopped with Perkin Elmer 1× detection buffer containing 30 mM EDTA, 20 nM SA-APC, and 1 nM PT66 Ab. The plate is read using time-resolved fluorescence with a Perkin Elmer Envision using excitation filter 330 nm, emission filter 665 nm, and 2nd emission filter 615 nm. IC50 values are subsequently calculated. Alternatively, the Lanthascreen assay can be used to evaluate Btk activity through quantification of its phosphorylated peptide product. The FRET (Fluorescence Resonance Energy Transfer) that occurs between the fluorescein on the peptide product and the terbium on the detection antibody decreases with the addition of inhibitors of Btk that reduce the phosphorylation of the peptide. […] The reaction is initiated by the addition of ATP to 25 uM (Km of ATP). After incubation for 60 minutes at room temperature, the reaction is stopped by the addition of a final concentration of 2 nM Tb-PY20 detection antibody in 60 mM EDTA for 30 minutes at room temperature. Detection is determined on a Perkin Elmer Envision with 340 nm excitation and emission at 495 nm and 520 nm. Exemplary Btk inhibition IC50 values are in Tables and 2.

[2] = test system: production of CD69 by B lymphocytes in human whole blood activated with goat F(ab')2 anti-human IgM; assay: CD69 Whole Blood Assay; format: cell-based; conditions: Lymphocyte, anti-IgM stimulation, 20 hours, CD69 positive of CD20 positive cells
Description: A CD69 Whole Blood Assay can be conducted on Formula I compounds to determine the ability of compounds to inhibit the production of CD69 by B lymphocytes in human whole blood activated by crosslinking surface IgM with goat F(ab′)2 anti-human IgM (Example 907).
Human blood is obtained from healthy volunteers, with the following restrictions: 1 week drug-free, non-smokers. Blood (approximately 20 mls to test 8 compounds) is collected by venipuncture into Vacutainer® (Becton, Dickinson and Co.) tubes with sodium heparin.
Solutions of Formula I compounds at 10 mM in DMSO are diluted 1:10 in 100% DMSO, then are diluted by three-fold serial dilutions in 100% DMSO for a ten point dose-response curve. The compounds are further diluted 1:10 in PBS and then an aliquot of 5.5 μl of each compound is added in duplicate to a 2 ml 96-well plate; 5.5 μl of 10% DMSO in PBS is added as control and no-stimulus wells. Human whole blood—HWB (100 μl) is added to each well. After mixing the plates are incubated at 37° C., 5% CO2, 100% humidity for 30 minutes. Goat F(ab′)2 anti-human IgM (10 μl of a 500 μg/ml solution, 50 μg/ml final) is added to each well (except the no-stimulus wells) with mixing and the plates are incubated for an additional 20 hours. At the end of the 20 hour incubation, samples are incubated with fluorescent labeled antibodies for 30 minutes, at 37° C., 5% CO2, 100% humidity. Include induced control, unstained and single stains for compensation adjustments and initial voltage settings. Samples are then lysed with PharM Lyse™ (BD Biosciences Pharmingen) according to the manufacturer's instructions. Samples are then transferred to a 96 well plate suitable to be run on the BD Biosciences HTS 96 well system on the LSRII machine. Data acquired and Mean Fluorescence Intensity values were obtained using BD Biosciences DIVA Software. Results are initially analyzed by FACS analysis software (Flow Jo). […] The IC50 values are calculated by Prism version 5, using a nonlinear regression curve fit.

[3] = test system: CD86 surface expression on CD19+/7AAD- total mouse splenocytes stimulated with IgM; assay: CD86 Inhibition Assay; format: cell-based; conditions: Splenocyte; Balb/c mouse splenocytes, IgM stimulation, 24 hr
Method: A CD86 Inhibition assay can be conducted on Formula I compounds for the inhibition of B cell activity using total mouse splenocytes purified from spleens of 8-16 week old Balb/c mice (Example 905).
A generalized procedure for a standard assay for the inhibition of B cell activity that can be used to test Formula I compounds is as follows. Total mouse splenocytes are purified from spleens of 8-16 week old Balb/c mice by red blood cell lysis (BD Pharmingen #555899). Testing compounds are diluted to 0.5% DMSO and incubated with 1.25×10^6 splenocytes in a final volume of 200 μl in flat clear bottom plates (Falcon 353072) for 60 min at 37° C. Cells are then stimulated with the addition of 15 μg/ml IgM (Jackson ImmunoResearch 115-006-020), and incubated for 24 hr at 37° C., 5% CO2. Following the 24 hr incubation, cells are transferred to conical bottom clear 96-well plates and pelleted by centrifugation at 1200×g×5 min. Cells are preblocked by CD16/CD32 (BD Pharmingen #553142), followed by triple staining with CD19-FITC (BD Pharmingen #553785), CD86-PE (BD Pharmingen #553692), and 7AAD (BD Pharmingen #51-68981E). Cells are sorted on a BD FACSCalibur and gated on the CD19^+/7AAD^− population. The levels of CD86 surface expression on the gated population is measured versus test compound concentration. Exemplary results are in Table 3.

full length human wildtype Btk, sequence (Q06187 whole entry): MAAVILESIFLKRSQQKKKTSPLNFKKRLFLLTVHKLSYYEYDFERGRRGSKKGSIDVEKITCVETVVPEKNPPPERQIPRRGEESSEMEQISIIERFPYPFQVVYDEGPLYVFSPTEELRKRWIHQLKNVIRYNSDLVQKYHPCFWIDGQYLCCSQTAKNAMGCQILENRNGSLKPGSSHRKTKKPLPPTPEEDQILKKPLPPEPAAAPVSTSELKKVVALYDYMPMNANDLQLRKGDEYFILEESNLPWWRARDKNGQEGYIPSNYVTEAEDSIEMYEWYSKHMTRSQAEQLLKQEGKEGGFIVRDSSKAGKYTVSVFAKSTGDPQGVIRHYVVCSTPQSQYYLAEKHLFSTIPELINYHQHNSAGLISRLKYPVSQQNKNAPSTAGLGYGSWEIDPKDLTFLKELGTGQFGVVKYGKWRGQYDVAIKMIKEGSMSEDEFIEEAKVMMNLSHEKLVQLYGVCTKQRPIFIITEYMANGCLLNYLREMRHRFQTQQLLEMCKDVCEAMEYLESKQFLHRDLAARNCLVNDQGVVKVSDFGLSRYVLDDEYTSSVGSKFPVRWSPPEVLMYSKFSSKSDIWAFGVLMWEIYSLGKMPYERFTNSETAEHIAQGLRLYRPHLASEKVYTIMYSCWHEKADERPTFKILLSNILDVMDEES

Row | IC50 [2] [nM] | EC50 [3] [nM] | SMILES | IC50 [1] [nM]
1 |  |  | CN1CCN(C)[C@@H](c2ccc(Nc3nc(-c4ccc(F)c(N5Cc6cc(C(C)(C)C)sc6C5=O)c4)cn(C)c3=O)cc2)C1=O [Compound 131, 5-(3-{2-tert-butyl-6-oxo-4H,5H,6H-thieno[2,3-c]pyrrol-5-yl}-4-fluorophenyl)-3-({4-[(2S)-1,4-dimethyl-3-oxopiperazin-2-yl]phenyl}amino)-1-methyl-1,2-dihydropyrazin-2-one] | 47.4
2 | 185 |  | CN1CCN(c2ccc(Nc3cc(-c4cccc(N5Cc6cc(C(C)(C)C)ccc6C5=O)c4CO)cn(C)c3=O)nn2)CC1 [Compound 122, 5-tert-butyl-2-(2-(hydroxymethyl)-3-(1-methyl-5-(6-(4-methylpiperazin-1-yl)pyridazin-3-ylamino)-6-oxo-1,6-dihydropyridin-3-yl)phenyl)isoindolin-1-one] | 
3 | 605 | 74 | Cn1cc(-c2cccc(N3Cc4cc(C(C)(C)C)ccc4C3=O)c2CO)cc(Nc2ccncn2)c1=O [Compound 107, 5-tert-butyl-2-(2-(hydroxymethyl)-3-(1-methyl-6-oxo-5-(pyrimidin-4-ylamino)-1,6-dihydropyridin-3-yl)phenyl)isoindolin-1-one] | 
4 | 1100 |  | Cn1cc(-c2cccc(N3Cc4cc(C(C)(C)C)ccc4C3=O)c2CO)cc(Nc2cc(C3CC3)n[nH]2)c1=O [Compound 110, 5-tert-butyl-2-(3-(5-(3-cyclopropyl-1H-pyrazol-5-ylamino)-1-methyl-6-oxo-1,6-dihydropyridin-3-yl)-2-(hydroxymethyl)phenyl) isoindolin-1-one] | 
5 | 157 |  | Cn1cc(-c2cccc(N3Cc4cc(C(C)(C)C)ccc4C3=O)c2CO)cc(Nc2ccn(CCO)n2)c1=O [Compound 119] | 
6 |  |  | Cc1c(-c2cn(C)c(=O)c(Nc3ccc(C4C(=O)NCCN4C)cc3)n2)cccc1N1Cc2cc(C(C)(C)C)sc2C1=O (stereo not drawn) [Compound 104, 2-tert-butyl-5-(2-methyl-3-(4-methyl-6-(4-(1-methyl-3-oxopiperazin-2-yl)phenylamino)-5-oxo-4,5-dihydropyrazin-2-yl)phenyl)-4H-thieno[2,3-c]pyrrol-6(5H)-one] | 95
7 | 116 | 153 | Cn1cc(-c2cccc(N3Cc4cc(C(C)(C)C)sc4C3=O)c2CO)nc(Nc2ccc(N3CCOCC3)cc2)c1=O [Compound 160, 5-(3-{2-tert-butyl-6-oxo-4H,5H,6H-thieno[2,3-c]pyrrol-5-yl}-2-(hydroxymethyl)phenyl)-1-methyl-3-{[4-(morpholin-4-yl)phenyl]amino}-1,2-dihydropyrazin-2-one] | 
8 | 112 |  | Cn1cc(-c2cccc(N3Cc4cc(C(C)(C)C)sc4C3=O)c2CO)cc(Nc2ccc(N3CCOCC3)cn2)c1=O [Compound 151, 5-(3-{2-tert-butyl-6-oxo-4H,5H,6H-thieno[2,3-c]pyrrol-5-yl}-2-(hydroxymethyl)phenyl)-1-methyl-3-{[5-(morpholin-4-yl)pyridin-2-yl]amino}-1,2-dihydropyridin-2-one] | 
9 |  |  | CN1CCN(C)[C@@H](c2ccc(Nc3nc(-c4ccc(F)c(N5Cc6cc(C(C)(C)C)sc6C5=O)c4F)cn(C)c3=O)cc2)C1=O [Compound 130, 5-(3-{2-tert-butyl-6-oxo-4H,5H,6H-thieno[2,3-c]pyrrol-5-yl}-2,4-difluorophenyl)-3-({4-[(2S)-1,4-dimethyl-3-oxopiperazin-2-yl]phenyl]amino)-1-methyl-1,2-dihydropyrazin-2-one] | 33.7
10 |  |  | Cc1c(-c2cn(C)c(=O)c(Nc3ccc(C4NCCN(C)C4=O)cc3)n2)cccc1N1Cc2cc(C(C)(C)C)sc2C1=O (stereo not drawn) [Compound 102, 2-tert-butyl-5-(2-methyl-3-(4-methyl-6-(4-(4-methyl-3-oxopiperazin-2-yl)phenylamino)-5-oxo-4,5-dihydro-pyrazin-2-yl)phenyl)-4H-thieno[2,3-c]pyrrol-6(5H)-one] | 11.5
11 | 42.6 |  | Cn1cc(-c2cccc(N3Cc4cc(C(C)(C)C)sc4C3=O)c2CO)cc(Nc2ccn(CCO)n2)c1=O [Compound 139, 5-(3-{2-tert-butyl-6-oxo-4H,5H,6H-thieno[2,3-c]pyrrol-5-yl}-2-(hydroxymethyl)phenyl)-3-{[1-(2-hydroxyethyl)-1H-pyrazol-3-yl]amino}-1-methyl-1,2-dihydropyridin-2-one] | 

Row | SMILES | IC50 [2] [nM] | EC50 [3] [nM] | IC50 [1] [nM]
12 | Cc1c(-c2cn(C)c(=O)c(Nc3ccc(C4C(=O)NCCN4C)cc3)n2)cccc1N1Cc2cc(C(C)(C)C)sc2C1=O (stereo not drawn) [Compound 134, 5-(3-{2-tert-butyl-6-oxo-4H,5H,6H-thieno[2,3-c]pyrrol-5-yl}-2-methylphenyl)-1-methyl-3-{[4-(1-methyl-3-oxopiperazin-2-yl)phenyl]amino}-1,2-dihydropyrazin-2-one] |  | 1900 | 24.7
